In patent US4870074A, “Substituted benzamide derivatives, for enhancing gastrointestinal motility” (priority 1986, dated 1989):

How the values were obtained:
gastric emptying = assay: Test 1: gastric emptying enhancing activity (phenol red test meal); format: in vivo, Male Wistar rats; settings: for change in vivo at 2 mg/kg / change in vivo at 0.5 mg/kg / change in vivo at 5 mg/kg / change in vivo at 10 mg/kg / change in vivo at 0.2 mg/kg: po, 0.25 h, 60 min before test meal, rat, read-out: Gastric emptying enhancing activity, Increase (emptying rate vs control); for change in vivo at 2 mg/kg: 2.0 mg/kg p.o.; for change in vivo at 0.5 mg/kg: 0.5 mg/kg p.o.; for change in vivo at 5 mg/kg: 5.0 mg/kg p.o.; for change in vivo at 10 mg/kg: 10.0 mg/kg p.o.; for change in vivo at 0.2 mg/kg: 0.2 mg/kg p.o.
Procedure: The test was carried out according to the method of Scarpignato et al. [cf. Arch. int. Pharmacodyn., 246, 286-294 (1980)].
Male Wistar rats, weighing 130-150 g, were fasted for 18 hours before experimentation, and 1.5 ml of a test meal (phenol red 0.05% in a 1.5% aqueous methylcellulose solution) was given by gastric tube. Fifteen minutes after administration of the meal the stomach was removed and the amount of phenol red remaining in the stomach was measured.
The test compounds, dissolved or suspended in a 0.5% tragacanth solution, were orally administered 60 minutes before administration of the test meal. The rate of gastric emptying was calculated according to the amount of phenol red remaining in the stomach, and the activity of the test compounds was expressed in terms of increase in the emptying rate from the control. The number of animals used was 5 for the control and each dose of metoclopramide hydrochloride monohydrate and 4 for each dose of the other test compounds.

central nervous system = assay: Test 3: effect on the central nervous system (CNS effect), Irwin observation; settings: 100 mg/kg, p.o., mouse, 2 hours observation
Procedure: Male ddY mice, weighing 18-25 g, were used in groups of 3 animals each. […] Psychopharmacologia, 13, 222-227 (1968)], comprehensive observation of behavioral and physiologic states were carried out for 2 hours after the oral treatment with 100 mg/kg of the test compound, dissolved or suspended in a 0.5% tragacanth solution. Liability of the test compounds to the central nervous system effect was expressed with the following marks, according to the total sum of potencies for the individually analyzed effects, such as catalepsy, ptosis, hypolocomotin, etc.

Structure (SMILES)	change in vivo at 2 mg/kg (gastric emptying) [%]	CNS effect (central nervous system)	further results
COc1cc(N)c(Cl)cc1C(=O)NCC1CN(Cc2ccccc2)CCO1 (centres unmarked) [18(2), 4-amino-N-[(4-benzyl-2-morpholinyl)methyl]-5-chloro-2-methoxybenzamide]	39.3	-	
CCOc1cc(N)c(Cl)cc1C(=O)NCC1CN(Cc2ccccc2)CCO1 (centres unmarked) [63(1), 4-amino-N-[(4-benzyl-2-morpholinyl)methyl]-5-chloro-2-ethoxybenzamide]	54.4	-	change in vivo at 0.5 mg/kg (gastric emptying): 33.9%
CCOc1cc(N)c(Cl)cc1C(=O)NCC1CN(Cc2ccccc2Cl)CCO1 (centres unmarked) [66(1)]	41.3	-	
CCOc1cc(N)c(Cl)cc1C(=O)NCC1CN(Cc2ccc(Cl)cc2)CCO1 (centres unmarked) [68(1)]	62.7	-	
CCOc1cc(N)c(Cl)cc1C(=O)NCC1CN(Cc2cccnc2)CCO1 (centres unmarked) [80(1)]	65.6	-	
CCN(CC)CCNC(=O)c1cc(Cl)c(N)cc1OC [A, 4-amino-5-chloro-N-[(2-diethylamino)ethyl]-2-methoxybenzamide, reference compound]	20.7		change in vivo at 5 mg/kg (gastric emptying): 25.7%; change in vivo at 10 mg/kg (gastric emptying): 30.7%
CCN1CCOC(CNC(=O)c2ccccc2OC)C1.O=C(O)/C=C/C(=O)O (centres unmarked) [Compound B, N-[(4-Ethyl-2-morpholinyl)methyl]-2-methoxybenzamide fumarate, reference compound]	3.8		gastric emptying enhancing effect (in words) (gastric emptying; even at a dose of 10.0 mg/kg p.o.): did not show any effect; change in vivo at 5 mg/kg (gastric emptying): -1.9%; change in vivo at 10 mg/kg (gastric emptying): 2.1%
CCOc1cc(N)c(Cl)cc1C(=O)NCC1CN(Cc2ccc(F)cc2)CCO1 (centres unmarked) [Example 1(1), 4-amino-5-chloro-2-ethoxy-N-[[4-(4-fluorobenzyl)-2-morpholinyl]methyl]benzamide]	49.8	-	change in vivo at 0.2 mg/kg (gastric emptying): 39.5%
COc1cc(N)c(Cl)cc1C(=O)NCC1CN(Cc2ccc(C#N)cc2)CCO1 (centres unmarked) [Example 6, 4-amino-5-chloro-N-[[4-(4-cyanobenzyl)-2-morpholinyl]methyl]-2-methoxybenzamide]	49.2	-	
CCOc1cc(NC(C)=O)c(Cl)cc1C(=O)NCC1CN(Cc2ccc(F)cc2)CCO1 (centres unmarked) [Example 7, 4-acetylamino-5-chloro-2-ethoxy-N-[[4-(4-fluorobenzyl)-2-morpholinyl]methyl]benzamide]	74		
CCOc1cc(N)c(Cl)cc1C(=O)NCCC1CN(Cc2ccccc2)CCO1 (centres unmarked) [Example 8, 4-amino-N-[2-(4-benzyl-2-morpholinyl)ethyl]-5-chloro-2-ethoxybenzamide]	44.9	-	
CCOc1cc(N)c(Cl)cc1C(=O)NCC1CN(Cc2ccccc2Cl)CC(C)O1 (centres unmarked) [Example 14, 4-amino-5-chloro-N-[[4-(2-chlorobenzyl)-6-methyl-2-morpholinyl]methyl]-2-ethoxybenzamide]	47.5		
CCOc1cc(N)c(Cl)cc1C(=O)NCC1CN(Cc2ccccc2)CCCO1 (centres unmarked) [Example 16, 4-amino-N-[(4-benzyl-hexahydro-1,4-oxazepin-2-yl)methyl]-5-chloro-2-ethoxybenzamide]	47.3		
COc1cc(N)c(Cl)cc1C(=O)NCC1CN(Cc2c(F)c(F)c(F)c(F)c2F)CCO1 (centres unmarked) [Example 25]	39.1		
COc1cc(N)c(Cl)cc1C(=O)NCC1CN(Cc2cccc(C(F)(F)F)c2)CCO1 (centres unmarked) [Example 28]	42.8		
COc1cc(N)c(Cl)cc1C(=O)NCC1CN(Cc2cccc(C#N)c2)CCO1 (centres unmarked) [Example 33]	42.3		
COc1cc(N)c(Cl)cc1C(=O)NCC1CN(C(C)c2ccccc2)CCO1 (centres unmarked) [Example 37]	42.2		
COc1cc(N)c(Cl)cc1C(=O)NCC1CN(CCCOc2ccc(Cl)cc2)CCO1 (centres unmarked) [Example 52]	52.5		
CCOc1cc(N)c(Cl)cc1C(=O)NCC1CN(Cc2ccccc2F)CCO1 (centres unmarked) [Example 64]	59.9		
CCOc1cc(N)c(Cl)cc1C(=O)NCC1CN(Cc2cccc(F)c2)CCO1 (centres unmarked) [Example 65]	54.1		
CCOc1cc(N)c(Cl)cc1C(=O)NCC1CN(Cc2cccc(Cl)c2)CCO1 (centres unmarked) [Example 67]	57.5	-	
CCOc1cc(N)c(Cl)cc1C(=O)NCC1CN(Cc2cccc(C(F)(F)F)c2)CCO1 (centres unmarked) [Example 70]	57.8	-	
CCOc1cc(N)c(Cl)cc1C(=O)NCC1CN(Cc2ccc(C#N)cc2)CCO1 (centres unmarked) [Example 73]	46.2		change in vivo at 0.5 mg/kg (gastric emptying): 44.2%
CCOc1cc(N)c(Cl)cc1C(=O)NCC1CN(Cc2ccc(Cl)cc2[N+](=O)[O-])CCO1 (centres unmarked) [Example 74]	46.7	-	
CCOc1cc(N)c(Cl)cc1C(=O)NCC1CN(CCCCc2ccccc2)CCO1 (centres unmarked) [Example 76]	47.1		

Structure (SMILES)	change in vivo at 2 mg/kg (gastric emptying) [%]	CNS effect (central nervous system)	further results
CCOc1cc(N)c(Cl)cc1C(=O)NCC1CN(C(C)c2ccccc2)CCO1 (centres unmarked) [Example 77]	43.8		
CCOc1cc(N)c(Cl)cc1C(=O)NCC1CN(Cc2ccccn2)CCO1 (centres unmarked) [Example 79]	51		
CCOc1cc(N)c(Cl)cc1C(=O)NCC1CN(Cc2ccncc2)CCO1 (centres unmarked) [Example 81]	52.9	-	
CCCOc1cc(N)c(Cl)cc1C(=O)NCC1CN(Cc2ccccc2)CCO1 (centres unmarked) [Example 86]	55		
CCCCOc1cc(N)c(Cl)cc1C(=O)NCC1CN(Cc2ccccc2)CCO1 (centres unmarked) [Example 88, 4-amino-N-[(4-benzyl-2-morpholinyl)methyl]-2-butoxy-5-chlorobenzamide]	53.7	-	change in vivo at 0.2 mg/kg (gastric emptying): 32.8%; change in vivo at 0.5 mg/kg (gastric emptying): 42.9%
CCCCOc1cc(N)c(Cl)cc1C(=O)NCC1CN(Cc2ccc(F)cc2)CCO1 (centres unmarked) [Example 89]	49.9	+	
CCCCOc1cc(N)c(Cl)cc1C(=O)NCC1CN(Cc2ccccc2Cl)CCO1 (centres unmarked) [Example 90]	55.4	-	
CC(C)COc1cc(N)c(Cl)cc1C(=O)NCC1CN(Cc2ccccc2)CCO1 (centres unmarked) [Example 91]	51.2	-	
CCCCCOc1cc(N)c(Cl)cc1C(=O)NCC1CN(Cc2ccccc2)CCO1 (centres unmarked) [Example 92]	41		
CC(C)CCOc1cc(N)c(Cl)cc1C(=O)NCC1CN(Cc2ccccc2)CCO1 (centres unmarked) [Example 93, 4-amino-N-[(4-benzyl-2-morpholinyl)methyl]-5-chloro-2-isopentyloxybenzamide]	44.2	-	change in vivo at 0.5 mg/kg (gastric emptying): 46.9%
CC(C)CCOc1cc(N)c(Cl)cc1C(=O)NCC1CN(Cc2ccc(F)cc2)CCO1 (centres unmarked) [Example 94]	52	-	
CC(C)CCOc1cc(N)c(Cl)cc1C(=O)NCC1CN(Cc2ccccc2Cl)CCO1 (centres unmarked) [Example 95]	61.6	-	change in vivo at 0.2 mg/kg (gastric emptying): 34.7%
CCCCCCCOc1cc(N)c(Cl)cc1C(=O)NCC1CN(Cc2ccccc2)CCO1 (centres unmarked) [Example 97]	43.8	-	
Nc1cc(OC2CCCC2)c(C(=O)NCC2CN(Cc3ccccc3)CCO2)cc1Cl (centres unmarked) [Example 101]	46.4	-	
Nc1cc(OCCCl)c(C(=O)NCC2CN(Cc3ccccc3)CCO2)cc1Cl (centres unmarked) [Example 102]	46.8		
CC(=O)COc1cc(N)c(Cl)cc1C(=O)NCC1CN(Cc2ccccc2)CCO1 (centres unmarked) [Example 104]	43.8	-	
CC(O)COc1cc(N)c(Cl)cc1C(=O)NCC1CN(Cc2ccccc2)CCO1 (centres unmarked) [Example 105]	52	-	
Nc1cc(OCC2CC2)c(C(=O)NCC2CN(Cc3ccccc3)CCO2)cc1Cl (centres unmarked) [Example 111]	48.7		
C=CCOc1cc(N)c(Cl)cc1C(=O)NCC1CN(Cc2ccccc2)CCO1 (centres unmarked) [Example 115]	45.6		
CC(C)=CCOc1cc(N)c(Cl)cc1C(=O)NCC1CN(Cc2ccccc2)CCO1 (centres unmarked) [Example 116, 4-amino-N-[(4-benzyl-2-morpholinyl)methyl]-5-chloro-2-(3-methyl-2-butenyloxy)benzamide]	52.4	-	change in vivo at 0.5 mg/kg (gastric emptying): 41.4%
C#CCOc1cc(N)c(Cl)cc1C(=O)NCC1CN(Cc2ccccc2)CCO1 (centres unmarked) [Example 120]	40.6		
COc1cc(N(C)C)c(Cl)cc1C(=O)NCC1CN(Cc2ccccc2)CCO1 (centres unmarked) [Example 130]	51.8		
CCOc1cc(N(C)C)c(Cl)cc1C(=O)NCC1CN(Cc2ccccc2)CCO1 (centres unmarked) [Example 132]	50.6		
CCOc1cc(N)c(Cl)cc1C(=O)NCC1C[N+]([O-])(Cc2ccccc2Cl)CCO1 (centres unmarked) [Example 244, 4-amino-5-chloro-N-[[4-(2-chlorobenzyl)-2-morpholinyl]methyl]-2-ethoxybenzamide N-oxide]	51.8		
